pIC50: −log10 of the molar value. Like-named read-outs stand apart in the source and are kept apart here.
Biological target: PI3Kα (Homo sapiens (Human), UniProt P42336)
Test: ADP-Glo Kinase Assay, PI3Kα enzyme activity inhibition
[1] = PI3Kaα IC50, ADP-Glo, ATP 25 μM, PIP2 50 μg/mL, 1 hour at room temperature
[2] = ADP-Glo, ATP 25 μM, PIP2 50 μg/mL, 1 hour at room temperature

Chain of PI3Kα (P42336 whole entry): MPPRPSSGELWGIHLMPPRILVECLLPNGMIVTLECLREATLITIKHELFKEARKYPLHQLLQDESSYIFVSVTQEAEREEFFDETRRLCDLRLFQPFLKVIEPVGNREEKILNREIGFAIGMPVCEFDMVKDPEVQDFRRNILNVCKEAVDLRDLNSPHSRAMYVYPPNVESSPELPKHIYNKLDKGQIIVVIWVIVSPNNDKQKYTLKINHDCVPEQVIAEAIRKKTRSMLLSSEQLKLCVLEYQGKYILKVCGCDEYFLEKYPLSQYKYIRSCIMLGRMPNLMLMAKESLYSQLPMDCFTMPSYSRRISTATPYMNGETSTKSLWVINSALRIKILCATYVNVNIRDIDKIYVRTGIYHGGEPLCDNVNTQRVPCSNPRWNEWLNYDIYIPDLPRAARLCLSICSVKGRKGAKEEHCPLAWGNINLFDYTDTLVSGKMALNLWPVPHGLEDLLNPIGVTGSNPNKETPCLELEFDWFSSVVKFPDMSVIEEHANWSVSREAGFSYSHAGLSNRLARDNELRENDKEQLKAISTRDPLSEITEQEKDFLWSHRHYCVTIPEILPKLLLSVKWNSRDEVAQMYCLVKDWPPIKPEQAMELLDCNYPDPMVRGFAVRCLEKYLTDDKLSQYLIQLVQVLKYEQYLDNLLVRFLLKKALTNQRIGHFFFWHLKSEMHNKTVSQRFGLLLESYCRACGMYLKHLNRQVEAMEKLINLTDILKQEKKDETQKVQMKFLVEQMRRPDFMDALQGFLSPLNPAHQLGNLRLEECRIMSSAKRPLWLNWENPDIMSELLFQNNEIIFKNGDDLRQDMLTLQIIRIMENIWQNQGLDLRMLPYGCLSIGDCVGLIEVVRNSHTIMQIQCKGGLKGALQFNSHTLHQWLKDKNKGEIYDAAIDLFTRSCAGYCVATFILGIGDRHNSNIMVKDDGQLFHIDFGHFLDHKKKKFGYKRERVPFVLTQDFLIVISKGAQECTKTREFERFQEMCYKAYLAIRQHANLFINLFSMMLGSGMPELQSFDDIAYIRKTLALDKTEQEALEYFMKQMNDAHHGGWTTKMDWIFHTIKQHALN
Chain of PI3Kα (P27986 whole entry partner): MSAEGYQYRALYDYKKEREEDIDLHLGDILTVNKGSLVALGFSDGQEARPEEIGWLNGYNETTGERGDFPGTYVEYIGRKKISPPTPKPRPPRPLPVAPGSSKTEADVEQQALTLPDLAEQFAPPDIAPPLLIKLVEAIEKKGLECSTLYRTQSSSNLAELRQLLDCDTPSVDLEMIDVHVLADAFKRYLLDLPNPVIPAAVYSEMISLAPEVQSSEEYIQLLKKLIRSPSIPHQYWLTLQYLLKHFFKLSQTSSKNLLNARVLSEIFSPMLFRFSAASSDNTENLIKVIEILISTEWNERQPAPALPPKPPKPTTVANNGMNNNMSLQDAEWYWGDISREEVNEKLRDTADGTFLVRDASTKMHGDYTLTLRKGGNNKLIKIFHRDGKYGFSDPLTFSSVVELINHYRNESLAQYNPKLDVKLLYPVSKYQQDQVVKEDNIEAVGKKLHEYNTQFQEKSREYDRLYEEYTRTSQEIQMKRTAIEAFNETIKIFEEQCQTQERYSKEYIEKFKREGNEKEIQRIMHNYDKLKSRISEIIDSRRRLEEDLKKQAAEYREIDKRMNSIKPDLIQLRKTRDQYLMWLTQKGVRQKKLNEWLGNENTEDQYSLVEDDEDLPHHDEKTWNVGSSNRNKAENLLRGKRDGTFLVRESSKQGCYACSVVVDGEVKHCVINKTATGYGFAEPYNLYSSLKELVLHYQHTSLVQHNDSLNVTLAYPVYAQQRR
Experimental: The ADP-Glo Kinase Assay Kit was used for the experiments. The following buffer solutions were prepared: 50 mM HEPES, pH 7.5, 3 mM MgCl2, 1 mM EGTA, 100 mM NaCl, 0.03% CHAPS, 2 mM DTT. The tested compound samples were dissolved in DMSO and added to the screening system at a certain starting concentration of, for example, 10 μM, diluted 3-fold, while setting a DMSO control and an unkinase control. […] The reaction system was reacted at room temperature for 1 hour, then terminated by adding a terminal reagent (ADP-Glo reagent, 5 μL), and the ADP content in the system was detected using a detection reagent (Kinase Detection Reagent, 10 μL). Signal data was collected using the Envision instrument. Calculated the % inhibition according to the following formula: % inhibition=(DMSO control signal value−sample signal value)! (DMSO control signal value −unkinase control signal value).

Structure (SMILES)	PI3Kaα IC50 [2]	also measured
O=C(Nc1cc(Br)c2c3c1C(c1cc(Cl)ccc1Cl)NC(=O)N3CC2)c1cc(F)cc(C(F)(F)F)c1 (centres unmarked) [YL093]		pIC50 [1]: 5.00 to 6.60
O=C(Nc1cc(-c2ccc3ncnn3c2)c2c3c1C(c1cc(F)ccc1Cl)NC(=O)N3CC2)c1cc(F)cc(C(F)(F)F)c1 (centres unmarked) [YL128]	+++ (+++ represents IC50>10 μM)	
O=C(Nc1cc(-c2ccc3ncnn3c2C(F)(F)F)c2c3c1C(c1cc(F)ccc1Cl)NC(=O)N3CC2)c1cc(F)cc(C(F)(F)F)c1 (centres unmarked) [YL145]	+++ (+++ represents IC50>10 μM)	
Nc1cc(NC(=O)c2cc(F)cc(C(F)(F)F)c2)c2c3c1CCN3C(=O)NC2c1cc(Cl)ccc1Cl (centres unmarked) [YL094]		pIC50 [1]: 5.00 to 6.60
N#Cc1cc(N)ncc1-c1cc(NC(=O)c2cc(F)cc(C(F)(F)F)c2)c2c3c1CCN3C(=O)NC2c1cc(F)ccc1Cl (centres unmarked) [YL152]	+++ (+++ represents IC50>10 μM)	
N#Cc1nc(N)ncc1-c1cc(NC(=O)c2cc(F)cc(C(F)(F)F)c2)c2c3c1CCN3C(=O)NC2c1cc(F)ccc1Cl (centres unmarked) [YL137]	+++ (+++ represents IC50>10 μM)	
O=C(Nc1cc(N2CC(F)(F)C2)c2c3c1C(c1cc(F)ccc1Cl)NC(=O)N3CC2)c1cc(F)cc(C(F)(F)F)c1 (centres unmarked) [YL012]	++ (++ represents 250 nM<IC50<=10 μM)	
O=C(Nc1cc(-c2nn(Cc3ccccc3)cc2F)c2c3c1C(c1cc(F)ccc1Cl)NC(=O)N3CC2)c1cc(F)cc(C(F)(F)F)c1 (centres unmarked) [YL061]	+++ (+++ represents IC50>10 μM)	
Nc1cc(NC(=O)c2cc(F)cc(C(F)(F)F)c2)c2c3c1CCN3C(=O)NC2c1cccc2ccccc12 (centres unmarked) [YL060]	+++ (+++ represents IC50>10 μM)	
O=C(Nc1cc(-c2cnc3[nH]cnc3c2Cl)c2c3c1C(c1cc(F)ccc1Cl)NC(=O)N3CC2)c1cc(F)cc(C(F)(F)F)c1 (centres unmarked) [YL147]	+++ (+++ represents IC50>10 μM)	
N#Cc1c(-c2cc(NC(=O)c3cc(F)cc(C(F)(F)F)c3)c3c4c2CCN4C(=O)NC3c2cc(F)ccc2Cl)ccc2[nH]ncc12 (centres unmarked) [YL142]	+++ (+++ represents IC50>10 μM)	
O=C(Nc1cc(-c2cn[nH]c2C(F)(F)F)c2c3c1C(c1cc(F)ccc1Cl)NC(=O)N3CC2)c1cc(F)cc(C(F)(F)F)c1 (centres unmarked) [YL071]	++ (++ represents 250 nM<IC50<=10 μM)	
C#Cc1c(-c2cc(NC(=O)c3cc(F)cc(C(F)(F)F)c3)c3c4c2CCN4C(=O)NC3c2cc(F)ccc2Cl)ccc2ncnn12 (centres unmarked) [YL140]	+++ (+++ represents IC50>10 μM)	
O=C(Nc1cc(B(O)O)c2c3c1C(c1cc(F)ccc1Cl)NC(=O)N3CC2)c1cc(F)cc(C(F)(F)F)c1 (centres unmarked) [YL019]	++ (++ represents 250 nM<IC50<=10 μM)	
Nc1cc(-c2nc3cc(Cl)c(Cl)cc3[nH]2)c2c3c1CCN3C(=O)NC2c1cc(F)ccc1Cl (centres unmarked) [YL100]		pIC50 [1]: 5.00 to 6.60
Cc1ccccc1C1NC(=O)c2cccc3ccc(NC(=O)c4csc5ccccc45)c1c23 (centres unmarked) [YL004]	+++ (+++ represents IC50>10 μM)	
C#Cc1cc(NC(=O)c2cc(F)cc(C(F)(F)F)c2)c2c3c1CCN3C(=O)NC2c1cc(F)ccc1Cl (centres unmarked) [YL069]	+++ (+++ represents IC50>10 μM)	
O=C(Nc1cc(F)c2c3c1C(c1cc(F)ccc1Cl)NC(=O)N3CC2)c1cc(F)cc(C(F)(F)F)c1 (centres unmarked) [YL021]	++ (++ represents 250 nM<IC50<=10 μM)	
C[C@@H](O)C(=O)Nc1cc(NC(=O)c2cc(F)cc(C(F)(F)F)c2)c2c3c1CCN3C(=O)NC2c1cc(F)ccc1Cl (some centres unmarked) [YL031]	+++ (+++ represents IC50>10 μM)	

Structure (SMILES)	PI3Kaα IC50 [2]	also measured
Cc1cc(-c2cc(NC(=O)c3cc(F)cc(C(F)(F)F)c3)c3c4c2CCN4C(=O)NC3c2cc(F)ccc2Cl)n[nH]1 (centres unmarked) [YL070]	+++ (+++ represents IC50>10 μM)	
N#Cc1cc(NC(=O)c2cc(F)cc(C(F)(F)F)c2)c2c3c1CCN3C(=O)NC2c1cc(Cl)ccc1Cl (single isomer, unassigned) [YL101-P1]		pIC50 [1]: < 5.00
O=C1NC(c2cc(F)ccc2Cl)c2c(Nc3nccc4c(C(F)(F)F)cc(F)cc34)ccc3c2N1CC3 (centres unmarked) [YL050]	++ (++ represents 250 nM<IC50<=10 μM)	
O=C(Nc1cc(Br)c2c3c1C(c1cc(F)ccc1Br)NC(=O)N3CC2)c1cc(F)cc(C(F)(F)F)c1 (centres unmarked) [YL063]	++ (++ represents 250 nM<IC50<=10 μM)	
N#Cc1c(N)cccc1-c1cc(NC(=O)c2cc(F)cc(C(F)(F)F)c2)c2c3c1CCN3C(=O)NC2c1cc(F)ccc1Cl (centres unmarked) [YL133]	+++ (+++ represents IC50>10 μM)	
O=C(Nc1cc(Nc2cnn(C3CCOCC3)c2)c2c3c1C(c1cc(F)ccc1Cl)NC(=O)N3CC2)c1cc(F)cc(C(F)(F)F)c1 (centres unmarked) [YL023]	++ (++ represents 250 nM<IC50<=10 μM)	
O=C(Nc1cc(-c2c[nH]cn2)c2c3c1C(c1cc(F)ccc1Cl)NC(=O)N3CC2)c1cc(F)cc(C(F)(F)F)c1 (centres unmarked) [YL074]		pIC50 [1]: 5.00 to 6.60
Cn1nc2c(-c3cn[nH]c3F)cc(NC(=O)c3cc(F)cc(C(F)(F)F)c3)c3c2c1C(=O)NC3c1cc(F)ccc1Cl (centres unmarked) [YL113]	+++ (+++ represents IC50>10 μM)	
O=C(Nc1cc(NC2CC2)c2c3c1C(c1cc(F)ccc1Cl)NC(=O)N3CC2)c1cc(F)cc(C(F)(F)F)c1 (centres unmarked) [YL022]	++ (++ represents 250 nM<IC50<=10 μM)	
O=C(Nc1cc(NC(=O)C(F)(F)F)c2c3c1C(c1cc(F)ccc1Cl)NC(=O)N3CC2)c1cc(F)cc(C(F)(F)F)c1 (centres unmarked) [YL009]	++ (++ represents 250 nM<IC50<=10 μM)	
Cn1cc(-c2cc(NC(=O)c3cc(F)cc(C(F)(F)F)c3)c3c4c2CCN4C(=O)NC3c2cc(F)ccc2Cl)cn1 (centres unmarked) [YL015]	++ (++ represents 250 nM<IC50<=10 μM)	
O=C(Nc1cc(NC2COC2)c2c3c1C(c1cc(F)ccc1Cl)NC(=O)N3CC2)c1cc(F)cc(C(F)(F)F)c1 (centres unmarked) [YL027]	++ (++ represents 250 nM<IC50<=10 μM)	
O=C(Nc1cc(-c2c[nH]c3ncc(C(F)(F)F)cc23)c2c3c1C(c1cc(F)ccc1Cl)NC(=O)N3CC2)c1cc(F)cc(C(F)(F)F)c1 (centres unmarked) [YL036]	++ (++ represents 250 nM<IC50<=10 μM)	
Cc1ncc(-c2cc(NC(=O)c3cc(F)cc(C(F)(F)F)c3)c3c4c2CCN4C(=O)NC3c2cc(F)ccc2Cl)[nH]1 (centres unmarked) [YL067]	+++ (+++ represents IC50>10 μM)	
O=C(Nc1cc(NC2CCOCC2)c2c3c1C(c1cc(F)ccc1Cl)NC(=O)N3CC2)c1cc(F)cc(C(F)(F)F)c1 (centres unmarked) [YL028]	++ (++ represents 250 nM<IC50<=10 μM)	
C[C@H](O)C(=O)Nc1cc(NC(=O)c2cc(F)cc(C(F)(F)F)c2)c2c3c1CCN3C(=O)NC2c1cc(F)ccc1Cl (some centres unmarked) [YL030]	+++ (+++ represents IC50>10 μM)	
N#Cc1ncncc1-c1cc(NC(=O)c2cc(F)cc(C(F)(F)F)c2)c2c3c1CCN3C(=O)NC2c1cc(F)ccc1Cl (centres unmarked) [YL141]	+++ (+++ represents IC50>10 μM)	
Nc1cc(-c2nc3c(F)cc(C(F)(F)F)cc3[nH]2)c2c3c1CCN3C(=O)NC2c1cc(F)ccc1Cl (centres unmarked) [YL092]		pIC50 [1]: 5.00 to 6.60
Cn1nc2c(C#N)cc(NC(=O)c3cc(F)cc(C(F)(F)F)c3)c3c2c1C(=O)NC3c1cc(F)ccc1Cl (single isomer, unassigned) [YL102-P2]		pIC50 [1]: < 5.00

Structure (SMILES)	PI3Kaα IC50 [2]	also measured
Nc1cc(NC(=O)c2cc(F)cc(C(F)(F)F)c2)c2c3c1CCN3C(=O)NC2c1cc(F)ccc1C(F)(F)F (centres unmarked) [YL096]		pIC50 (PI3Kaα IC50): 5.00 to 6.60
[N-]=[N+]=Nc1cc(NC(=O)c2cc(F)cc(C(F)(F)F)c2)c2c3c1CCN3C(=O)NC2c1cc(F)ccc1Cl (centres unmarked) [YL011]	++ (++ represents 250 nM<IC50<=10 μM)	
Cc1cc(NC(=O)c2cc(F)cc(C(F)(F)F)c2)c2c3c1CCN3C(=O)NC2c1cc(F)ccc1Cl (centres unmarked) [YL020]	+++ (+++ represents IC50>10 μM)	
O=C(Nc1cc(Br)c2c3c1C(c1cc(F)ccc1Cl)NC(=O)N3CC2)c1cc(F)cc(C(F)(F)F)c1 (single isomer, unassigned) [YL079-P1]		pIC50 [1]: < 5.00
Nc1cc(NC(=O)c2cc(F)cc(C(F)(F)F)c2)c2c3c1CCN3C(=O)NC2c1cc(Cl)ccc1C(F)(F)F (centres unmarked) [YL095]		pIC50 [1]: 5.00 to 6.60
N#Cc1n[nH]cc1-c1cc(NC(=O)c2cc(F)cc(C(F)(F)F)c2)c2c3c1CCN3C(=O)NC2c1cc(F)ccc1Cl (centres unmarked) [YL126]	+++ (+++ represents IC50>10 μM)	
CCn1nc2ccc(NC(=O)c3cc(F)cc(C(F)(F)F)c3)c3c2c1C(=O)NC3c1cc(F)ccc1Cl (centres unmarked) [YL115]		PI3Kaα IC50: +++ (key: +represents IC50<=250 nM; ++ represents 250 nM<IC50<=10 μM; +++ represents IC50>10 μM)
Nc1cc(-c2nc3cc(Cl)ccc3[nH]2)c2c3c1CCN3C(=O)NC2c1cc(F)ccc1Cl (centres unmarked) [YL099]		pIC50 [1]: 5.00 to 6.60
O=C(Nc1cc(Br)c2c3c1C(c1cc(F)ccc1Cl)NC(=O)N3CC2)c1cc(F)cc(C(F)(F)F)c1 (single isomer, unassigned) [YL079-P2]		pIC50 [1]: 5.00 to 6.60
N#Cc1c(-c2cc(NC(=O)c3cc(F)cc(C(F)(F)F)c3)c3c4c2CCN4C(=O)NC3c2cc(F)ccc2Cl)cc(F)c2ncnn12 (centres unmarked) [YL149]		pIC50 [1]: < 5.00
Nc1n[nH]c2ccc(-c3cc(NC(=O)c4cc(F)cc(C(F)(F)F)c4)c4c5c3CCN5C(=O)NC4c3cc(F)ccc3Cl)cc12 (centres unmarked) [YL013]	++ (++ represents 250 nM<IC50<=10 μM)	
O=C(Nc1cc(-c2c(C(F)(F)F)n[nH]c2-c2ccccc2)c2c3c1C(c1cc(F)ccc1Cl)NC(=O)N3CC2)c1cc(F)cc(C(F)(F)F)c1 (centres unmarked) [YL049]	+++ (+++ represents IC50>10 μM)	
N#Cc1cc(N)ccc1-c1cc(NC(=O)c2cc(F)cc(C(F)(F)F)c2)c2c3c1CCN3C(=O)NC2c1cc(F)ccc1Cl (centres unmarked) [YL150]	++ (++ represents 250 nM<IC50<=10 μM)	
O=C(Nc1cc(-c2ccc3ncnn3c2Br)c2c3c1C(c1cc(F)ccc1Cl)NC(=O)N3CC2)c1cc(F)cc(C(F)(F)F)c1 (centres unmarked) [YL139]	+++ (+++ represents IC50>10 μM)	
Nc1cc(Nc2nccc3c(C(F)(F)F)cc(F)cc23)c2c3c1CCN3C(=O)NC2c1cc(F)ccc1Cl (centres unmarked) [YL086]		pIC50 [1]: 5.00 to 6.60
O=C(Nc1cc(-c2ccc3ncnn3c2F)c2c3c1C(c1cc(F)ccc1Cl)NC(=O)N3CC2)c1cc(F)cc(C(F)(F)F)c1 (centres unmarked) [YL129]	+++ (+++ represents IC50>10 μM)	
N#Cc1nc(F)ncc1-c1cc(NC(=O)c2cc(F)cc(C(F)(F)F)c2)c2c3c1CCN3C(=O)NC2c1cc(F)ccc1Cl (centres unmarked) [YL143]	+++ (+++ represents IC50>10 μM)	
O=C(Nc1cc(Br)c2c3c1C(c1ccccc1Cl)NC(=O)N3CC2)c1cc(F)cc(C(F)(F)F)c1 (centres unmarked) [YL066]	+++ (+++ represents IC50>10 μM)	

Reference: US20240158408A1, “Nitrogen-Containing Heterocyclic Compound, Pharmaceutical Compositions thereof and Use thereof” (280 Bio, Inc., priority 2022, published 2024)
